Test results from ChEMBL document CHEMBL3351412, “Design, synthesis and biological evaluation of β-boswellic acid based HDAC inhibitors as inducers of cancer cell death” (Bioorg Med Chem Lett, 2014).
Calls of active or inactive are those of the source. No cut-off for these calls is given here.

Key:
MCF7 = experiment: Cytotoxicity against human MCF7 cells; assay type: functional, cell-based
[1] = Cell cycle arrest in human HL60 cells assessed as accumulation at sub-G1 phase at 5 uM by propidium iodide staining-based flow cytometry (reference value: 2.1%); assay type: functional; conditions: HL-60
Histone deacetylase = experiment: Inhibition of HDAC (unknown origin); assay type: protein assay, Homo sapiens
HL-60 [2] = experiment: Induction of apoptosis in human HL60 cells assessed as loss of mitochondrial membrane potential in P5 quadrant at 1 uM by Rhodamine123 assay (reference value: 3.4%); assay type: functional
[3] = molecular target: T1, Histone deacetylase (Homo sapiens) (UniProt Q13547+O15379+Q9UBN7+Q92769+Q9UQL6+Q8WUI4+Q9BY41+Q96DB2+P56524+Q9UKV0+Q969S8); experiment: Inhibition of HDAC (unknown origin) at 20 uM; assay type: protein assay
[4] = Cell cycle arrest in human HL60 cells assessed as accumulation at G2/M phase at 1 uM by propidium iodide staining-based flow cytometry (reference value: 21.3%); assay type: functional; conditions: HL-60
HL-60 [5] = experiment: Induction of apoptosis in human HL60 cells assessed as loss of mitochondrial membrane potential in P4 quadrant at 1 uM by Rhodamine123 assay (reference value: 96.6%); assay type: functional
[6] = Cytotoxicity against human HL60 cells; assay type: functional, cell-based; conditions: HL-60
[7] = molecular target: T1, Histone deacetylase (Homo sapiens); experiment: Inhibition of HDAC (unknown origin) at 50 uM; assay type: protein assay
HL-60 [8] = experiment: Induction of apoptosis in human HL60 cells assessed as loss of mitochondrial membrane potential in P4 quadrant at 5 uM by Rhodamine123 assay (reference value: 96.6%); assay type: functional
[9] = Cytotoxicity against human HCT116 cells; assay type: functional, cell-based; conditions: HCT-116
[10] = Cell cycle arrest in human HL60 cells assessed as accumulation at sub-G1 phase at 1 uM by propidium iodide staining-based flow cytometry (reference value: 2.1%); assay type: functional; conditions: HL-60
[11] = Cell cycle arrest in human HL60 cells assessed as accumulation at G2/M phase at 5 uM by propidium iodide staining-based flow cytometry (reference value: 21.3%); assay type: functional; conditions: HL-60
[12] = Cell cycle arrest in human HL60 cells at 5 to 10 uM by propidium iodide staining-based flow cytometry; assay type: functional; conditions: HL-60
[13] = molecular target: T1, Histone deacetylase (Homo sapiens); experiment: Inhibition of HDAC (unknown origin) at 1 uM; assay type: protein assay
[14] = Cell cycle arrest in human HL60 cells assessed as accumulation at S phase at 5 uM by propidium iodide staining-based flow cytometry (reference value: 17.3%); assay type: functional; conditions: HL-60
A549 = experiment: Cytotoxicity against human A549 cells; assay type: functional, cell-based
HL-60 [15] = experiment: Induction of apoptosis in human HL60 cells assessed as loss of mitochondrial membrane potential in P5 quadrant at 5 uM by Rhodamine123 assay (reference value: 3.4%); assay type: functional
[16] = molecular target: T1, Histone deacetylase (Homo sapiens); experiment: Inhibition of HDAC (unknown origin) at 10 uM; assay type: protein assay
[17] = Cell cycle arrest in human HL60 cells assessed as accumulation at G1 phase at 1 uM by propidium iodide staining-based flow cytometry (reference value: 58.9%); assay type: functional; conditions: HL-60
[18] = molecular target: T1, Histone deacetylase (Homo sapiens); experiment: Inhibition of HDAC (unknown origin) at 30 uM; assay type: protein assay
[19] = Cell cycle arrest in human HL60 cells assessed as accumulation at S phase at 1 uM by propidium iodide staining-based flow cytometry (reference value: 17.3%); assay type: functional; conditions: HL-60
[20] = Cell cycle arrest in human HL60 cells assessed as accumulation at G1 phase at 5 uM by propidium iodide staining-based flow cytometry (reference value: 58.9%); assay type: functional; conditions: HL-60
[21] = Cytotoxicity against human FR2 cells; assay type: cell-based
[22] = Cytotoxicity against human MIAPaCa2 cells; assay type: functional, cell-based; conditions: MIA PaCa-2

Compound | IC50 (MCF7) [µM] | IC50 (Histone deacetylase) [µM] | Activity (HL-60 [2]) [%] | Activity [4] [%] | Activity (HL-60 [5]) [%] | IC50 [6] [µM] | inhibition [7] [%] | IC50 [9] [µM] | Activity [10] [%] | IC50 (A549) [µM] | Activity [17] [%] | inhibition [18] [%] | Activity [19] [%] | IC50 [21] [µM] | IC50 [22] [µM] | also measured
C[C@H]1[C@H](C)CC[C@]2(C)CC[C@]3(C)C(=CC(=O)[C@@H]4[C@@]5(C)CC[C@@H](O)[C@](C)(NC(=O)CCCC(=O)NO)[C@@H]5CC[C@]43C)[C@H]12 | 7.1 | 6 | 6.7 | 10.7 | 93.3 | 1.6 | 88 | 15.1 | 6.1 | 13 | 74.5 | 86 | 8 | 1.9 | 15.1 | Activity [1]: 92.2%; inhibition [3]: 70%; Activity (HL-60 [8]): 3.6%; Activity [11]: 7.1%; Activity [12]: Active; inhibition [13]: 23%; Activity [14]: 0.7%; Activity (HL-60 [15]): 96.4%; inhibition [16]: 65%; Activity [20]: 7.2%
O=C(CCCCCCC(=O)Nc1ccccc1)NO [VORINOSTAT] |  |  | 4 | 17.1 | 96 |  |  |  | 2.8 |  | 65.3 |  | 14 |  |  | 
C[C@H]1[C@H](C)CC[C@]2(C)CC[C@]3(C)C(=CC[C@@H]4[C@@]5(C)CC[C@@H](O)[C@](C)(NC(=O)CCCC(=O)NO)[C@@H]5CC[C@]43C)[C@H]12 | 3.6 | 34 |  |  |  | 11.7 | 54 | > 20 |  | > 20 |  | 46 |  | > 20 | 8.8 | 
C[C@H]1[C@H](C)CC[C@]2(C)CC[C@]3(C)C(=CC[C@@H]4[C@@]5(C)CC[C@@H](O)[C@](C)(NC(=O)CCCCCCC(=O)NO)[C@@H]5CC[C@]43C)[C@H]12 | > 20 | 30 | 3.2 | 16.8 | 96.8 | > 20 | 56 | > 20 | 7.4 | > 20 | 57.8 | 50 | 16.8 | > 20 | > 20 | Activity [1]: 4.5%; Activity (HL-60 [8]): 70.2%; Activity [11]: 18.6%; Activity [14]: 15.7%; Activity (HL-60 [15]): 29.8%; Activity [20]: 60.6%
C[C@H]1[C@H](C)CC[C@]2(C)CC[C@]3(C)C(=CC(=O)[C@@H]4[C@@]5(C)CC[C@@H](O)[C@](C)(NC(=O)CCCCCCCC(=O)NO)[C@@H]5CC[C@]43C)[C@H]12 | 11 | 48 |  |  |  | > 20 | 52 | 12 |  | > 20 |  | 31 |  | > 20 | > 20 | 
C[C@H]1[C@H](C)CC[C@]2(C)CC[C@]3(C)C(=CC(=O)[C@@H]4[C@@]5(C)CC[C@@H](O)[C@](C)(NC(=O)CCCCCCC(=O)NO)[C@@H]5CC[C@]43C)[C@H]12 | 4 | > 50 |  |  |  | 3 | 39 | 5.2 |  | 6.9 |  | 12 |  | 4.3 | 8.7 | 
C[C@H]1[C@H](C)CC[C@]2(C)CC[C@]3(C)C(=CC(=O)[C@@H]4[C@@]5(C)CC[C@@H](O)[C@](C)(NC(=O)CCCCC(=O)NO)[C@@H]5CC[C@]43C)[C@H]12 | > 20 | 42 |  |  |  | 6.6 | 57 | > 20 |  | 3.1 |  | 37 |  | 7.2 | 13.1 | 
